{"source": "patent US20230101312A1", "about": "“SOS1 INHIBITORS” (Mirati Therapeutics, Inc., priority 2020, published 2023)", "system": "MKN1 cells or H358", "assay": "pERK inhibition in-cell western", "type": "cell-based", "settings": "MKN1 or H358 cells (cell line not given), 1 hour with compound, GAPDH normalized", "procedure": "This Example illustrates that exemplary compounds of the present invention prevent KRas-mediated GTP nucleotide exchange mediated by SOS1 to inhibit KRas activity thereby inhibiting the generation of the downstream effector pERK. MKN1 cells (15,000/w) or H358 (30,000/w) were seeded in a black clear flat bottom 96-well cell culture plate (Corning, #3904) and incubated at 37° C. overnight. Assay day 1, cells were dosed with compounds of Formula (I) with a 10 μm starting concentration and serially diluted 3× for a total of 9 concentrations. The cells were incubated for 1 hour with the compounds solubilized in DMSO at 37° C. Cells were immediately fixed by adding 50 μL of 4% formaldehyde to all wells in a fume hood and the plates were incubated for 20 minutes at room temperature. The formaldehyde was discarded from the plates and 150 μL of ice-cold methanol was added to permeabilize the cells for 10 minutes at −20° C. The methanol was discarded from each of the plates and any liquid remaining in the plate by tapping the plate against paper towels. Cells were then blocked with 150 μL of Odyssey blocking buffer (LI-COR Biosciences #927-50010) using 0.05% Tween for 1 hour at room temperature on a shaker. […] The IC50 values were then calculated with the Graph pad Prism software."}
{"smiles": "CNCc1ccccc1-c1csc([C@@H](C)Nc2ncc(C#N)c3cc(OC)c(OC)cc23)c1", "note": "[Example 1-1, (R)-6,7-dimethoxy-1-((1-(4-(2-((methylamino)methyl)phenyl)thiophen-2-yl)ethyl)amino)isoquinoline-4-carbonitrile]", "values": [{"measurement": "IC50", "result": 2.05, "unit": "µM"}]}
